Source: patent US8841312B2, “Fused pyridine, pyrimidine and triazine compounds as cell cycle inhibitors” (Amgen Inc., priority 2007, dated 2014)

Experiments:
[1] = molecular target: Cdk6/CyclinD3 (Homo sapiens (Human), UniProt Q00534); experiment: Cdk6 kinase inhibition assay with recombinant Cdk6/CyclinD3, Rb substrate, [33P]-ATP filter plate; format: biochemical; details: 25 μM ATP, read-out: Cdk 6 IC50
In short: (§1)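 Recombinant Cdk4/CyclinD1 or Cdk6/CyclinD3 phosphorylated Rb protein with [33P]-ATP for 1 h at room temperature. Protein was TCA-precipitated on filter plates and bound radioactivity counted. IC50 by nonlinear regression.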

[2] = molecular target: Cdk4/CyclinD1 (Homo sapiens (Human), UniProt P11802); experiment: Cdk4 kinase inhibition assay with recombinant Cdk4/CyclinD1, Rb substrate, [33P]-ATP filter plate; format: biochemical; details: 25 μM ATP, read-out: Cdk 4 IC50
Sequence of Cdk4/CyclinD1 (P11802 whole entry): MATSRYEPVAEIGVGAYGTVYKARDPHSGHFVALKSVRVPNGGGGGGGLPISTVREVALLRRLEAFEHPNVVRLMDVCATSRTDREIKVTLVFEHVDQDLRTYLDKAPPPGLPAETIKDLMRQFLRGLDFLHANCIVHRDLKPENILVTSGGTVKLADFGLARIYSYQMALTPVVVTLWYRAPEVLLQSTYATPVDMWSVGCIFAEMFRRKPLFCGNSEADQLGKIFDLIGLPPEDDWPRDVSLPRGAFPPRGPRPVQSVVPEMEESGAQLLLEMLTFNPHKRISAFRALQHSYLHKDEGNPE
Sequence of Cdk4/CyclinD1 (P24385 whole entry partner): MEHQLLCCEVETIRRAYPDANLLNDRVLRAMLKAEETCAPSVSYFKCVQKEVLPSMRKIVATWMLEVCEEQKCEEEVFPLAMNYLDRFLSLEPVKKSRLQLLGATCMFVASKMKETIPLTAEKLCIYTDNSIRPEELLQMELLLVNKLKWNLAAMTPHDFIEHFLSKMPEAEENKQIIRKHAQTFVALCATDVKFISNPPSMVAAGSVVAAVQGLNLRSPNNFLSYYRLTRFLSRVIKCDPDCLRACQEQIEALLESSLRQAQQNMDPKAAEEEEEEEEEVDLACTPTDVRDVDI
In short: as §1

Sequence of Cdk6/CyclinD3 (Q00534 whole entry): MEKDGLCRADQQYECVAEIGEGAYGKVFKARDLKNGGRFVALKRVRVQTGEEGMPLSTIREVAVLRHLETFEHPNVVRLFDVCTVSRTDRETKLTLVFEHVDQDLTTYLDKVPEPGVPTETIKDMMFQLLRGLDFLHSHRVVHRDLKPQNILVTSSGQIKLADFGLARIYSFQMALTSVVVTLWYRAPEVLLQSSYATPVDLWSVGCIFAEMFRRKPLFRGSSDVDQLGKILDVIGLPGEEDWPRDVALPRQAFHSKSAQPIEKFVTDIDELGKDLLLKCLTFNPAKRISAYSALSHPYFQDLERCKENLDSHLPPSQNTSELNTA
Sequence of Cdk6/CyclinD3 (P30281 whole entry partner): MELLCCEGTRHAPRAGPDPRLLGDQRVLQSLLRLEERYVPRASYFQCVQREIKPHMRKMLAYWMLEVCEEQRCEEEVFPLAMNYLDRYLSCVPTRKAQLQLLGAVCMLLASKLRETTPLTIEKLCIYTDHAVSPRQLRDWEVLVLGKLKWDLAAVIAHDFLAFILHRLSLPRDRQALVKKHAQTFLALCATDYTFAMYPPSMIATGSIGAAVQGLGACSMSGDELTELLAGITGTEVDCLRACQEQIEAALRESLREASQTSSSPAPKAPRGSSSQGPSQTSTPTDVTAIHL

Structure (SMILES) | IC50 [1] [nM] | IC50 [2] [nM]
CN(C)C1CCN(c2ccc(Nc3ncc4c5ccncc5n(C5CCC5)c4n3)nn2)CC1 [Example 347] | 27 | 27
FC(F)(F)CNC1CCN(c2ccc(Nc3ncc4c5ccncc5n(C5CCCC5)c4n3)nc2)CC1 [Example 470] | 38 | 11
c1cc2c3cnc(Nc4ccc(N5CCOCC5)nn4)nc3n(C3CCCC3)c2cn1 [Example 106] | 24.3 | 4
CN1CCN(c2ccc(Nc3ncc4c5ccccc5n(C5CCCC5)c4n3)nc2)CC1 [Example 298] | 8 | 40
CNC1CCN(c2ccc(Nc3ncc4c5ccncc5n(C5CCC5)c4n3)nn2)CC1 [Example 434] | 19 | 13
c1cc2c3cnc(Nc4ccc(N5CCNCC5)cn4)cc3n(Cc3ccsc3)c2cn1 [Example 235, N-(5-(1-piperazinyl)-2-pyridinyl)-5-(3-thiophenylmethyl)-5H-pyrido[3′,4′:4,5]pyrrolo[2,3-c]pyridin-3-amine] | 257 | 125
CC[C@@H](C)n1c2cnccc2c2cnc(Nc3ccc(N4CCC(N(C)C)CC4)nn3)nc21 [Example 316] | 59 | 36
CC1CN(c2ccc(Nc3ncc4c5ccccc5n(C5CCCC5)c4n3)nn2)CC(C)N1 (stereo not drawn) [Example 306] | 39 | 13
c1cc2c3cnc(Nc4ccc(N5CCCC5)nn4)nc3n(C3CCCC3)c2cn1 [Example 111] | 19.7 | 4.4
c1cc2c3cnc(Nc4ccc(N5CCCNCC5)nn4)nc3n(C3CCCC3)c2cn1 [Example 117] | 6.8 | 5.5
c1ccc2c(c1)c1cnc(Nc3ccc(N4CCNCC4)cc3)nc1n2C1CCCC1 [Example 47, (9-Cyclopentyl-9H-pyrimido[4,5-b]indol-2-yl)-(4-piperazin-1-yl-phenyl)-amine] | 3.7 | 2
c1cc(-c2ccc(Nc3ncc4c5ccncc5n(C5CCCC5)c4n3)nc2)ccn1 [Example 260, N-3,4′-bipyridin-6-yl-9-cyclopentyl-9H-pyrido[4′,3′:4,5]pyrrolo[2,3-d]pyrimidin-2-amine] | 60 | 45
COC(=O)CNC1CCN(c2ccc(Nc3ncc4c5ccncc5n(C5CCCC5)c4n3)nn2)CC1 [Example 476] | 26 | 1.7
c1ccc2c(c1)c1cnc(Nc3ccc(N4CCNCC4)cn3)nc1n2C1CCCCCC1 [Example 39, (9-Cycloheptyl-9H-pyrimido[4,5-b]indol-2-yl)-(5-piperazin-1-yl-pyridin-2-yl)-amine] | 3.1 | 2.1
N[C@@H]1CCN(c2ccc(Nc3ncc4c5ccncc5n(C5CCCC5)c4n3)nn2)C1 [Example 109] | 11 | 1.9
O[C@H]1CCCN(C2CCN(c3ccc(Nc4ncc5c6ccncc6n(C6CCCC6)c5n4)nn3)CC2)C1 [Example 452] | 30 | 7
C[C@@H]1CN(c2ccc(Nc3ncc4c5ccnc(F)c5n(C5CCCC5)c4n3)nn2)CCN1 [Example 253, 9-Cyclopentyl-8-fluoro-N-(6-((3R)-3-methyl-1-piperazinyl)-3-pyridazinyl)-9H-pyrido[4′,3′:4,5]pyrrolo[2,3-d]pyrimidin-2-amine] | 27 | 3.9

Structure (SMILES) | IC50 [1] [nM] | IC50 [2] [nM]
O[C@@H]1CCN(c2ccc(Nc3ncc4c5ccncc5n(C5CCCC5)c4n3)nn2)C1 [Example 18, (R)-9-cyclopentyl-N-(6-(3-hydroxypyrrolidin-1-yl)-3-pyridazinyl)-9H-pyrido[4′,3′:4,5]-pyrrolo[2,3d]pyrimidin-2-amine] | 1.5 | 1.6
CCC(CC)n1c2cnccc2c2cnc(Nc3ccc(N4CCC(N(C)C)CC4)nn3)nc21 [Example 163, N-(6-(4-(Dimethylamino)-1-piperidinyl)-3-pyridazinyl)-9-(1-ethylpropyl)-9H-pyrido[4′,3′:4,5]pyrrolo[2,3-d]pyrimidin-2-amine] | 16 | 17
OCCC1CCN(c2ccc(Nc3ncc4c5ccnc(F)c5n(C5CCCC5)c4n3)nc2)CC1 [Example 190, 2-(1-(6-((9-Cyclopentyl-8-fluoro-9H-pyrido[4′,3′:4,5]pyrrolo[2,3-d]pyrimidin-2-yl)amino)-3-pyridinyl)-4-piperidinyl)ethanol] | 7.6 | 6.4
CC1CCC(n2c3cnccc3c3cnc(Nc4ccc(N5CCNCC5)cn4)nc32)CC1 (stereo not drawn) [Example 55, 9-(4-methylcyclohexyl)-N-(5-(1-piperazinyl)-2-pyridinyl)-9H-pyrido[4′,3′:4,5]pyrrolo[2,3-d]pyrimidin-2-amine] | 4.4 | 1.2
CC[C@@H](C)n1c2cnccc2c2cnc(Nc3ccc(N4CCNCC4)nn3)nc21 [Example 323] | 23 | 9.6
C[C@@H](C1CCCCC1)n1c2cnccc2c2cnc(Nc3ccc(N4CCNCC4)cn3)nc21 [Example 29] | 5.7 | 3.9
c1ccc2c(c1)c1cnc(Nc3ccc(N4CCNCC4)cn3)nc1n2C1CCCCC1 [Example 22, (9-Cyclohexyl-9H-pyrimido[4,5-b]indol-2-yl)-(5-piperazin-1-yl-pyridin-2-yl)-amine] | 2.5 | 1.3
CNC1CCN(c2ccc(Nc3ncc4c5ccncc5n(C5CCC5)c4n3)nc2)CC1 [Example 345] | 15 | 21
c1cc2c3cnc(Nc4nc(CN5CCNCC5)cs4)nc3n(C3CCCC3)c2cn1 [Example 164, 9-Cyclopentyl-N-(4-(1-piperazinylmethyl)-1,3-thiazol-2-yl)-9H-pyrido-[4′,3′:4,5]pyrrolo[2,3-d]pyrimidin-2-amine] | 6.2 | 3.6
c1cc2c3cnc(Nc4ccc(N[C@H]5CCNC5)cn4)nc3n(C3CCCC3)c2cn1 [Example 64] | 24 | 2.8
CC1(C)CCC(n2c3cnccc3c3cnc(Nc4ccc(N5CCNCC5)cn4)nc32)CC1 [Example 204, 9-(4,4-dimethylcyclohexyl)-N-(5-(1-piperazinyl)-2-pyridinyl)-9H-pyrido[4′,3′:4,5]pyrrolo[2,3-d]pyrimidin-2-amine] | 1.1 | 3.5
CN(C)C1CCN(c2ccc(Nc3ncc4c5ccncc5n([C@H]5CCC[C@H]5O)c4n3)nn2)CC1 [Example 355] | 275 | 177
Cn1c(=O)ccc2c3cnc(Nc4ccc(N5CCNCC5)cn4)nc3n(C3CCCC3)c21 [Example 184, 9-Cyclopentyl-8-methyl-2-((5-(1-piperazinyl)-2-pyridinyl)amino)-8,9-dihydro-7H-pyrido[3′,2′:4,5]pyrrolo[2,3-d]pyrimidin-7-one] | 31 | 8.6
c1ccc(-n2c3cnccc3c3cnc(Nc4ccc(N5CCNCC5)cn4)nc32)cc1 [Example 14, 9-Phenyl-N-(5-(1-piperazinyl)-2-pyridinyl)-9H-pyrido[4′,3′:4,5]pyrrolo[2,3-d]pyrimidin-2-amine] | 8 | 2.2
Cc1nccc2c3cnc(Nc4ccc(N5CCNCC5)cn4)nc3n(C3CCCC3)c12 [Example 54, 9-cyclopentyl-8-methyl-N-(5-(1-piperazinyl)-2-pyridinyl)-9H-pyrido[4′,3′:4,5]pyrrolo[2,3-d]pyrimidin-2-amine] | 47 | 20
CC[C@@H](C)n1c2cnccc2c2cnc(Nc3ccc(N4CCC(NC)CC4)cn3)nc21 [Example 325] | 42 | 11
